Experimental data reported in ChEMBL document CHEMBL1143694, “Fawcettimine-related alkaloids from Lycopodium serratum” (J Nat Prod, 2007).
The source made the active and inactive calls. No cut-off for these calls is given here.

Target: Acetylcholinesterase (Homo sapiens, UniProt P22303)
Assay: Inhibition of AChE by Ellman method

Sequence of Acetylcholinesterase (P22303 whole entry): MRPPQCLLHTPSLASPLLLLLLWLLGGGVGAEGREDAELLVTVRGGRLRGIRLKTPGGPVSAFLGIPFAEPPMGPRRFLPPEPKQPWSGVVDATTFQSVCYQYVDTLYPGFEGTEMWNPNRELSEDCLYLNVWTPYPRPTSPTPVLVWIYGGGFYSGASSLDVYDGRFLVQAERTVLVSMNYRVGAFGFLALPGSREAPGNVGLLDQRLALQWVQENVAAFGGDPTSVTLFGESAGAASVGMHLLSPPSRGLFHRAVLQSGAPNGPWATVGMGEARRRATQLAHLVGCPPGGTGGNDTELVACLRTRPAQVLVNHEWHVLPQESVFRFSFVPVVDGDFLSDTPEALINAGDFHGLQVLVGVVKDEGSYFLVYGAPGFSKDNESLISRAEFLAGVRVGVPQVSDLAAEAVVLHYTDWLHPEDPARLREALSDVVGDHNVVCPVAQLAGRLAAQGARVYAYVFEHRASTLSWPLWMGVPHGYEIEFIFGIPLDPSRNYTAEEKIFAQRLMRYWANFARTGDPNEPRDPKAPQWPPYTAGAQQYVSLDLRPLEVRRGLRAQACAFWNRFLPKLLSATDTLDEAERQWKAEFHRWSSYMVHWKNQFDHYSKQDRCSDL

Compound | Activity | IC50 [µM]
C[C@H]1C[C@]2(O)N3CC=CC24[C@H](CCC3)C(=O)C[C@@H]4[C@H]1O (some centres undefined) | inactive | –
C[C@H]1C=C2N3CC[C@@H](O)C24[C@H](CC(=O)[C@H]4C[C@H](O)C3)C1 (some centres undefined) | – | 27.9
CC1=C[C@H]2[C@H](O)C(=O)[C@H]3CCCN4CCC[C@H]2[C@]34C1 | – | 16.7
C[C@H]1C=C2N3CCC[C@@H]4C(=O)C[C@H](C1)C24[C@H](O)CC3 (some centres undefined) | inactive | –
